Literature values as cited in patent publication US20210007979A1 (FULTON MEDICINAL S.P.A., priority 2018, published 2021).
Structures can show the parent of a compound that is named as a salt.

Tests used:
[1] = not given; remark: listed apart in the source

SMILES: CCCc1nn(C)c2c(=O)[nH]c(-c3cc(S(=O)(=O)N4CCN(C)CC4)ccc3OCC)nc12 [sildenafil citrate, Sildenafil citrate]
- Solubility in water: sparingly soluble
- Permeability of the oral mucosae [1]: low permeability
